# Assay results taken from ChEMBL document CHEMBL1137125, “Rhodanine-3-acetic acid derivatives as inhibitors of fungal protein mannosyl transferase 1 (PMT1)” (Bioorg Med Chem Lett, 2004).
# pIC50: −log10 of the molar value.
# Assays:
# Candida albicans = experiment: In vitro inhibition of Candida albicans G418-sensitive proliferation; type: functional, organism-based
# [1] = molecular target: T1, Dolichyl-phosphate-mannose--protein mannosyltransferase 1 (Candida albicans (strain SC5314 / ATCC MYA-2876) (Yeast), UniProt O74189); experiment: In vitro inhibition of Candida albicans protein mannosyl transferase 1
# T1 sequence (O74189 whole entry): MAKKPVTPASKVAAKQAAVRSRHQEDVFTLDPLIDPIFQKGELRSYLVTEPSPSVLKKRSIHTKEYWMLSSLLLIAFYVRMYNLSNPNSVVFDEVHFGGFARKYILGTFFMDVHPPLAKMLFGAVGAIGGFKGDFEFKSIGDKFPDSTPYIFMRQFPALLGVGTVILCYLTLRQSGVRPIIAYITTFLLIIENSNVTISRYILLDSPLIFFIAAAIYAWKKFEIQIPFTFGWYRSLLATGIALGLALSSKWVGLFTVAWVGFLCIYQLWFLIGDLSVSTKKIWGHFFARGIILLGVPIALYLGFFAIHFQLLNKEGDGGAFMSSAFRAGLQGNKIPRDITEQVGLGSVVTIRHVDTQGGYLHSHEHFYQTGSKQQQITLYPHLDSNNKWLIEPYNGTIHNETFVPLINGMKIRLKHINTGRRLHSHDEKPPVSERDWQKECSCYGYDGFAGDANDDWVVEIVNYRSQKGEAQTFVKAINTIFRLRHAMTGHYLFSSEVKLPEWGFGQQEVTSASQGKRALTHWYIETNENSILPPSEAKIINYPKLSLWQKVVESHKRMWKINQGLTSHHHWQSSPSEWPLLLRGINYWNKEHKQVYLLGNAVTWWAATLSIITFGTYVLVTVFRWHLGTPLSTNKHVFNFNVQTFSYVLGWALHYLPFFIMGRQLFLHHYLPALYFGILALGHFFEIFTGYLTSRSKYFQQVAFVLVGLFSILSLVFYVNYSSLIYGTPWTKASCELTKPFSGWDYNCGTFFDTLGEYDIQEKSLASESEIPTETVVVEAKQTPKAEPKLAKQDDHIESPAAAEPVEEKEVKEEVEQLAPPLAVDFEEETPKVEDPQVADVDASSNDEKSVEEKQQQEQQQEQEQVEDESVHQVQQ
SMILES,pIC50 [1],pIC50 (Candida albicans)
O=C(O)CN1C(=O)/C(=C/c2ccc(OCCc3ccccc3)c(OCc3ccccc3)c2)SC1=S,5.82,6.30
O=C(O)CN1C(=O)/C(=C/c2ccc(OCCc3ccc(Cl)cc3)c(OCc3ccccc3)c2)SC1=S,5.80,7.30
O=C(O)CN1C(=O)/C(=C\c2ccc(OCc3ccccc3)c(OCc3ccc(OC(F)(F)F)cc3)c2)SC1=S,5.70,6.30
C[C@H](COc1ccc(/C=C2\SC(=S)N(CC(=O)O)C2=O)cc1OCc1ccccc1)c1ccccc1,5.02,6.46
CS(=O)(=O)c1ccc(COc2cc(/C=C3\SC(=S)N(CC(=O)O)C3=O)ccc2OCc2ccccc2)cc1,4.70,< 4.00
O=C(O)CN1C(=O)/C(=C/c2cccc(OCc3ccccc3)c2)SC1=S,4.30,
O=C(O)CN1C(=O)/C(=C/c2ccc(OCc3cccc(C(F)(F)F)c3)c(OCc3ccccc3)c2)SC1=S,,6.19
COc1cccc(COc2cc(/C=C3\SC(=S)N(CC(=O)O)C3=O)ccc2OCc2ccccc2)c1,5.12,< 4.00
O=C(O)CN1C(=O)/C(=C/c2ccc(OCCc3ccc(F)cc3F)c(OCc3ccccc3)c2)SC1=S,5.40,7.30
C[C@H](COc1ccc(/C=C2\SC(=S)N(CC(=O)O)C2=O)cc1O[C@@H](c1ccccc1)C(F)(F)F)c1ccccc1,5.46,6.26
O=C(O)CN1C(=O)/C(=C/c2ccc(OCc3c(F)cccc3F)c(OCc3c(F)cccc3F)c2)SC1=S,4.70,< 4.00
O=C(O)CN1C(=O)/C(=C/c2ccc(OCc3ccccc3)c(OCc3cccnc3)c2)SC1=S,4.37,< 4.00
O=C(O)CN1C(=O)/C(=C/c2ccc(OCc3ccccc3)c(OCc3ccc(F)cc3F)c2)SC1=S,5.07,5.22
O=C(O)CN1C(=O)/C(=C/c2ccc(OCc3ccc(F)c(F)c3)c(OCc3ccccc3)c2)SC1=S,5.70,5.82
O=C(O)CN1C(=O)/C(=C/c2ccc(OCCc3ccc(C(F)(F)F)cc3)c(OCc3ccccc3)c2)SC1=S,5.40,6.74
O=C(O)CN1C(=O)/C(=C/c2ccc(OCc3ccccc3)c(OCc3cccc(C(F)(F)F)c3)c2)SC1=S,4.96,< 4.00
O=C(O)CN1C(=O)/C(=C/c2ccc(OCc3ccccc3)c(OCc3ccc(Cl)cc3)c2)SC1=S,5.15,
C[C@@H](COc1ccc(/C=C2\SC(=S)N(CC(=O)O)C2=O)cc1O[C@@H](c1ccccc1)C(F)(F)F)c1ccccc1,5.74,6.70

SMILES,pIC50 [1],pIC50 (Candida albicans)
O=C(O)CN1C(=O)/C(=C/c2ccc(OCc3ccccc3)c(OCc3ccccc3)c2)SC1=S,5.64,5.52
O=C(O)CN1C(=O)/C(=C/c2ccc(OCc3ccc(F)cc3)c(OCc3ccc(F)cc3)c2)SC1=S,5.30,5.28
COc1cccc(COc2ccc(/C=C3\SC(=S)N(CC(=O)O)C3=O)cc2OCc2cccc(OC)c2)c1,4.82,< 4.00
O=C(O)CN1C(=O)/C(=C/c2ccc(OCCCc3ccccc3)c(OCc3ccccc3)c2)SC1=S,5.85,5.62
CS(=O)(=O)c1ccc(COc2ccc(/C=C3\SC(=S)N(CC(=O)O)C3=O)cc2OCc2ccccc2)cc1,5.49,< 4.00
C[C@@H](COc1ccc(/C=C2\SC(=S)N(CC(=O)O)C2=O)cc1OCc1ccccc1)c1ccccc1,5.74,7.15
O=C(O)CN1C(=O)/C(=C/c2ccc(OCc3ccccc3)c(OCc3ccncc3)c2)SC1=S,4.52,< 4.00
C[C@@H](COc1ccc(/C=C2\SC(=S)N(CC(=O)O)C2=O)cc1O[C@H](C)c1ccccc1)c1ccccc1,5.74,7.52
O=C(O)CN1C(=O)/C(=C/c2ccc(OCc3ccccc3)c(OCc3ccc(F)c(F)c3)c2)SC1=S,5.38,< 4.00
O=C(O)CN1C(=O)/C(=C/c2ccc(OCc3ccc(F)cc3F)c(OCc3ccc(F)cc3F)c2)SC1=S,5.30,< 4.00
O=C(O)CN1C(=O)/C(=C/c2ccc(OCc3ccccc3)c(OCc3ccc(C(F)(F)F)cc3)c2)SC1=S,4.96,< 4.00
O=C(O)CN1C(=O)/C(=C/c2ccc(OCc3ccccc3)cc2)SC1=S,4.26,4.30
Cc1ccc(COc2ccc(/C=C3\SC(=S)N(CC(=O)O)C3=O)cc2OCc2ccccc2)cc1,5.57,6.22
O=C(O)CN1C(=O)/C(=C/c2ccc(OCc3ccc(F)cc3F)c(OCc3ccccc3)c2)SC1=S,5.19,5.68
O=C(O)CN1C(=O)/C(=C/c2ccc(OCc3ccccc3)c(OCc3cccc(Cl)c3)c2)SC1=S,5.40,5.40
O=C(O)CN1C(=O)/C(=C/c2ccc(OCc3ccc(C(F)(F)F)cc3)c(OCc3ccccc3)c2)SC1=S,5.72,5.40
COc1ccc(COc2ccc(/C=C3\SC(=S)N(CC(=O)O)C3=O)cc2OCc2ccccc2)cc1,5.47,5.52

# The remaining molecules from weak to strong by pIC50 [1], led by results:
pIC50 [1],SMILES,pIC50 (Candida albicans)
5.89,O=C(O)CN1C(=O)/C(=C/c2ccc(OCCc3ccc(OC(F)(F)F)cc3)c(OCc3ccccc3)c2)SC1=S,6.70
5.92,O=C(O)CN1C(=O)/C(=C/c2ccc(OCCc3ccc(F)cc3)c(OCc3ccccc3)c2)SC1=S,7.30
6.00,O=C(O)CN1C(=O)/C(=C/c2ccc(OCCc3ccccc3)c(OC(C(=O)N3CCOCC3)c3ccccc3)c2)SC1=S (centres undefined),4.37
6.02,O=C(O)CN1C(=O)/C(=C/c2ccc(OCc3ccc(Cl)cc3)c(OCc3ccccc3)c2)SC1=S,6.22
6.02,CCC(Oc1cc(/C=C2\SC(=S)N(CC(=O)O)C2=O)ccc1OCCc1ccccc1)c1ccccc1 (centres undefined),7.70
6.07,O=C(O)CN1C(=O)/C(=C/c2ccc(OCCc3cc(F)cc(F)c3)c(OCc3ccccc3)c2)SC1=S,6.96
6.10,CCCN(CCC)C(=O)C(Oc1cc(/C=C2\SC(=S)N(CC(=O)O)C2=O)ccc1OCCc1ccccc1)c1ccccc1 (centres undefined),7.30
6.15,CC(C)C(Oc1cc(/C=C2\SC(=S)N(CC(=O)O)C2=O)ccc1OCCc1ccccc1)c1ccccc1 (centres undefined),7.52
6.22,C[C@H](COc1ccc(/C=C2\SC(=S)N(CC(=O)O)C2=O)cc1O[C@H](c1ccccc1)C(F)(F)F)c1ccccc1,7.70
6.30,C[C@H](Oc1cc(/C=C2\SC(=S)N(CC(=O)O)C2=O)ccc1OC[C@H](C)c1ccccc1)c1ccccc1,8.70
6.30,CC[C@H](COc1ccc(/C=C2\SC(=S)N(CC(=O)O)C2=O)cc1O[C@H](c1ccccc1)C(F)(F)F)c1ccccc1,7.70
6.40,C[C@@H](COc1ccc(/C=C2\SC(=S)N(CC(=O)O)C2=O)cc1O[C@H](c1ccccc1)C(F)(F)F)c1ccccc1,8.00
6.46,NC(=O)C(Oc1cc(/C=C2\SC(=S)N(CC(=O)O)C2=O)ccc1OCCc1ccccc1)c1ccccc1 (centres undefined),5.15
6.46,CC[C@@H](COc1ccc(/C=C2\SC(=S)N(CC(=O)O)C2=O)cc1O[C@H](c1ccccc1)C(F)(F)F)c1ccccc1,7.70
6.70,CC(Oc1cc(/C=C2\SC(=S)N(CC(=O)O)C2=O)ccc1OCCc1ccccc1)c1ccccc1 (centres undefined),7.70
6.77,O=C(O)CN1C(=O)/C(=C/c2ccc(OCCc3ccccc3)c(OC(CO)c3ccccc3)c2)SC1=S (centres undefined),6.52
